Reference: patent US8247211B2, “Glycopeptide antibiotics” (American Cyanamid Company, priority 2001, dated 2012)
Converted amounts (≈) assume the structure as drawn.

Tests used:
Enterococcus sp. = experiment: In vitro antibacterial evaluation: minimum inhibitory concentration (MIC), broth dilution method; assay type: cell-based
Method in brief: (§1)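 Using Muller-Hinton II […] and an inoculum of 5×10^5 CFU/mL, antibiotic dilutions from 64 down to 0.06 μg/mL were tested following NCCLS M7-A2. The MIC is the lowest concentration inhibiting growth, including in methicillin-, penicillin- or vancomycin-resistant clinical isolates.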

Escherichia coli = experiment: as above; assay type: cell-based
Method in brief: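 Inoculum: 5×10^5 CFU/mL. Range: 64-0.06 μg/mL. Medium: Muller-Hinton II […]; NCCLS M7-A2 broth dilution. Endpoint: lowest concentration inhibiting growth. Strains include methicillin-, penicillin- and/or vancomycin-resistant clinical isolates.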

Staphylococcus sp. = experiment: as above; assay type: cell-based; conditions: broth dilution, 18 hours at 35° C.
Method in brief: as §1

Streptococcus sp. = experiment: as above; assay type: cell-based
Method in brief: as §1

[1] = system: Staphylococcus aureus-SMITH (GC 4543); experiment: Acute lethal infection in mice (ED50); assay type: in vivo; conditions: female CD-1 mice, intraperitoneal challenge, intravenous dose 30 min. after infection, 7 day survival ratios
Method in brief: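 Groups of five female CD-1 mice per dose got intravenous antibiotic in saline or 5% dextrose half an hour after intraperitoneal infection sufficient to kill controls within 24-48 hr. Seven-day survival data from three experiments were combined to derive ED50.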

[2] = Anatomic pathology (heart and kidney histopathology) in mice; assay type: in vivo, CD-1 mice; conditions: 20 mg/kg intravenously daily for 9 days, microscopic histopathology on day 10
Procedure: 20-day-old CD-1 mice were divided into a vehicle control group (5 mice) and a treatment group (5 mice). Samples of glycopeptide antibiotics were administered at 20 mg/kg intravenously daily for 9 days.
Samples of tissues from necropsied mice were formalin-fixed, paraffin-embedded, sectioned, stained with hematoxylin and eosin, and examined microscopically. Histopathologic findings were recorded. These findings were subjectively graded on a scale corresponding to slight, mild, moderate, marked and severe as compared to untreated controls.

**Q.** For `CC(c1ccccc1)C1NC(=O)CNC(=O)C(CO)NC(=O)C(C(O)C2CNC(=N)N2C2OC(CO)C(O)C(O)C2O)NC(=O)C(C(O)C2CNC(=N)N2)NC(=O)C(Cc2ccc(OC3OC(CO)C(OC4OC5COC(c6ccc(C(=O)O)cc6)OC5C(O)C4O)C(O)C3O)cc2)NC1=O` (stereo not drawn) [Example 141, Cyclo[glycyl-β-methylphenylalanyl-O-[4-O-[4,6-O-(4-carboxybenzylidene)hexopyranosyl]-hexopyranosyl]tyrosyl-3-(2-iminoimidazolidin-4-yl)seryl-3-(3-hexopyranosyl-2-iminoimidazolidin-4-yl)serylseryl]], which “MIC Enterococcus faecalis (ATCC 29212)” value (Enterococcus sp.; strain ATCC 29212) is on record?
**A.** The value was over 64 µg/mL.

**Q.** And the “MIC Enterococcus faecalis (GC 2242)” value (Enterococcus sp.; strain GC 2242)?
**A.** Its value is over 64 µg/mL.

**Q.** What about the “MIC Enterococcus faecium (GC 2243)” value (Enterococcus sp.; strain GC 2243) of the same compound?
**A.** The value was over 64 µg/mL.

**Q.** And the “MIC Enterococcus faecalis (GC 2691)” value (Enterococcus sp.; strain GC 2691)?
**A.** The value was over 64 µg/mL.

**Q.** What about the “MIC Enterococcus faecalis (GC 3059)” value (Enterococcus sp.; strain GC 3059) of the same compound?
**A.** Its value is over 64 µg/mL.

**Q.** What about the “MIC Enterococcus faecalis (GC 4552)” value (Enterococcus sp.; strain GC 4552) of the same compound?
**A.** Its value is over 64 µg/mL.

**Q.** What about the “MIC Enterococcus faecalis (GC 4553)” value (Enterococcus sp.; strain GC 4553) of the same compound?
**A.** Its value is over 64 µg/mL.

**Q.** What about the “MIC Enterococcus faecalis (GC 4554)” value (Enterococcus sp.; strain GC 4554) of the same compound?
**A.** The value was over 64 µg/mL.

**Q.** And the “MIC Enterococcus faecium (GC 4556)” value (Enterococcus sp.; strain GC 4556)?
**A.** The value was over 64 µg/mL.

**Q.** And the “MIC Enterococcus faecium (GC 4557)” value (Enterococcus sp.; strain GC 4557)?
**A.** The value was 64 µg/mL (≈ 44.8 µM).

**Q.** What about the “MIC Enterococcus avium (GC 4558)” value (Enterococcus sp.; strain GC 4558) of the same compound?
**A.** The value was over 64 µg/mL.

**Q.** And the “MIC Enterococcus faecalis (GC 6189)” value (Enterococcus sp.; strain GC 6189)?
**A.** The value was over 64 µg/mL.

**Q.** What about the “MIC Escherichia coli (ATCC 25922)” value (Escherichia coli; strain ATCC 25922) of the same compound?
**A.** Its value is over 64 µg/mL.

**Q.** And the “MIC Escherichia coli (GC 4559)” value (Escherichia coli; strain GC 4559)?
**A.** Its value is over 64 µg/mL.

**Q.** What about the “MIC Escherichi coli (GC 4560)” value (Escherichia coli; strain GC 4560) of the same compound?
**A.** The value was over 64 µg/mL.

**Q.** And the “MIC Coagulase Negative Staphylococcus (GC 4547)” value (Staphylococcus sp.; 5×10^5 CFU/mL)?
**A.** The value was over 64 µg/mL.

**Q.** And the “MIC Coagulase Negative Staphylococcus (GC 4548)” value (Staphylococcus sp.; 5×10^5 CFU/mL)?
**A.** The value was over 64 µg/mL.

**Q.** And the “MIC Coagulase Negative Staphylococcus (GC 4549)” value (Staphylococcus sp.; 5×10^5 CFU/mL)?
**A.** The value was over 64 µg/mL.

**Q.** And the “MIC Coagulase Negative Staphylococcus (GC 4551)” value (Staphylococcus sp.; 5×10^5 CFU/mL)?
**A.** Its value is over 64 µg/mL.

**Q.** What about the “MIC Coagulase Negative Staphylococcus (GC 6257)” value (Staphylococcus sp.; 5×10^5 CFU/mL) of the same compound?
**A.** Its value is over 64 µg/mL.

**Q.** What about the “MIC Staphylococcus aureus (ATCC 29213)” value (Staphylococcus sp.; 5×10^5 CFU/mL) of the same compound?
**A.** Its value is over 64 µg/mL.

**Q.** What about the “MIC Staphylococcus aureus (GC 1131)” value (Staphylococcus sp.; 5×10^5 CFU/mL) of the same compound?
**A.** The value was over 64 µg/mL.

**Q.** And the “MIC Staphylococcus aureus (GC 3051)” value (Staphylococcus sp.; 5×10^5 CFU/mL)?
**A.** Its value is over 64 µg/mL.

**Q.** And the “MIC Staphylococcus aureus (GC 3053)” value (Staphylococcus sp.; 5×10^5 CFU/mL)?
**A.** Its value is over 64 µg/mL.

**Q.** What about the “MIC Staphylococcus aureus (GC 4541)” value (Staphylococcus sp.; 5×10^5 CFU/mL) of the same compound?
**A.** Its value is over 64 µg/mL.

**Q.** What about the “MIC Staphylococcus aureus (GC 4542)” value (Staphylococcus sp.; 5×10^5 CFU/mL) of the same compound?
**A.** The value was over 64 µg/mL.

**Q.** And the “MIC Staphylococcus aureus (GC 4544)” value (Staphylococcus sp.; 5×10^5 CFU/mL)?
**A.** The value was over 64 µg/mL.

**Q.** And the “MIC Staphylococcus aureus (GC 4545)” value (Staphylococcus sp.; 5×10^5 CFU/mL)?
**A.** Its value is over 64 µg/mL.

**Q.** And the “MIC Staphylococcus aureus-SMITH (GC 4543)” value (Staphylococcus sp.; 5×10^5 CFU/mL)?
**A.** The value was over 64 µg/mL.

**Q.** What about the “MIC Staphylococcus haemolyticus (GC 4546)” value (Staphylococcus sp.; 5×10^5 CFU/mL) of the same compound?
**A.** The value was over 64 µg/mL.

**Q.** And the “MIC Staphylococcus aureus (ATCC 29213)” value (Staphylococcus sp.; strain ATCC 29213)?
**A.** The value was over 64 µg/mL.

**Q.** What about the “MIC Staphylococcus aureus (GC 1131)” value (Staphylococcus sp.; strain GC 1131) of the same compound?
**A.** The value was over 64 µg/mL.

**Q.** And the “MIC Staphylococcus aureus (GC 3051)” value (Staphylococcus sp.; strain GC 3051)?
**A.** The value was over 64 µg/mL.

**Q.** What about the “MIC Staphylococcus aureus (GC 3053)” value (Staphylococcus sp.; strain GC 3053) of the same compound?
**A.** Its value is over 64 µg/mL.

**Q.** And the “MIC Staphylococcus aureus (GC 4541)” value (Staphylococcus sp.; strain GC 4541)?
**A.** The value was over 64 µg/mL.

**Q.** What about the “MIC Staphylococcus aureus (GC 4542)” value (Staphylococcus sp.; strain GC 4542) of the same compound?
**A.** Its value is over 64 µg/mL.

**Q.** And the “MIC Staphylococcus aureus-SMITH (GC 4543)” value (Staphylococcus sp.; strain GC 4543)?
**A.** Its value is over 64 µg/mL.

**Q.** And the “MIC Staphylococcus aureus (GC 4544)” value (Staphylococcus sp.; strain GC 4544)?
**A.** Its value is over 64 µg/mL.

**Q.** And the “MIC Staphylococcus aureus (GC 4545)” value (Staphylococcus sp.; strain GC 4545)?
**A.** Its value is over 64 µg/mL.

**Q.** And the “MIC Staphylococcus haemolyticus (GC 4546)” value (Staphylococcus sp.; strain GC 4546)?
**A.** Its value is over 64 µg/mL.

**Q.** And the “MIC Coagulase Negative Staphylococcus (GC 4547)” value (Staphylococcus sp.; strain GC 4547)?
**A.** The value was over 64 µg/mL.

**Q.** What about the “MIC Coagulase Negative Staphylococcus (GC 4548)” value (Staphylococcus sp.; strain GC 4548) of the same compound?
**A.** Its value is over 64 µg/mL.

**Q.** And the “MIC Coagulase Negative Staphylococcus (GC 4549)” value (Staphylococcus sp.; strain GC 4549)?
**A.** The value was over 64 µg/mL.

**Q.** What about the “MIC Coagulase Negative Staphylococcus (GC 4551)” value (Staphylococcus sp.; strain GC 4551) of the same compound?
**A.** Its value is over 64 µg/mL.

**Q.** And the “MIC Coagulase Negative Staphylococcus (GC 6257)” value (Staphylococcus sp.; strain GC 6257)?
**A.** Its value is over 64 µg/mL.

**Q.** And the “MIC Streptococcus pneumoniae (ATCC 6301)” value (Streptococcus sp.; strain ATCC 6301)?
**A.** Its value is over 64 µg/mL.

**Q.** What about the “MIC Streptococcus pneumoniae (GC 1894)” value (Streptococcus sp.; strain GC 1894) of the same compound?
**A.** The value was over 64 µg/mL.

**Q.** And the “MIC Streptococcus pyogenes (GC 4563)” value (Streptococcus sp.; strain GC 4563)?
**A.** The value was over 64 µg/mL.

**Q.** And the “MIC Streptococcus agalactiae (GC 4564)” value (Streptococcus sp.; strain GC 4564)?
**A.** The value was over 64 µg/mL.

**Q.** And the “MIC Streptococcus pneumoniae (GC 4565)” value (Streptococcus sp.; strain GC 4565)?
**A.** Its value is over 64 µg/mL.

**Q.** What about the “median effective dose (ED50), Staphylococcus aureus-SMITH (GC 4543)” value [1] of the same compound?
**A.** Its value is over 8.

**Q.** What about the “Anatomical Pathology (Day 10), Heart” value [2] of the same compound?
**A.** Its value is 0.

**Q.** What about the “Anatomical Pathology (Day 10), Kidney” value [2] of the same compound?
**A.** The value was “+++”.
